Results reported in patent US7115545B1, “Tricyclic benzoylpyrazole derivatives used as a herbicide” (BASF Aktiengesellschaft, priority 1999, dated 2006).

Experiments:
Chenopodium album = experiment: greenhouse post-emergence herbicidal test; type: in vivo; details: post-emergence method, application rates of 0.5 or 0.25 kg/ha, Chenopodium album (lambsquarters)
From the text: (§1) The seeds of the test plants were sown separately for each species. For post-emergence treatment, the test plants were first grown to a plant height of from 3 to 15 cm, depending on the plant habit, and only then treated with the active compounds which had been suspended or emulsified in water. For this purpose, the test plants were either sown directly and grown in the same containers, or they were first grown separately as seedlings and transplanted into the test containers a few days prior to the treatment. The application rate for the post-emergence treatment was 0.5 or 0.25 kg of a.s./ha. Depending on the species, the plants were kept at 10–25° C. or 20–35° C. The test period extended over 2 to 4 weeks. During this time, the plants were tended, and their response to the individual treatments was evaluated. Evaluation was carried out using a scale from 0 to 100. 100 means no emergence of the plants, or complete destruction of at least the above-ground parts, and 0 means no damage, or normal course of growth. The plants used in the greenhouse trials were of the following species: [table]

Echinochloa crusgalli = experiment: greenhouse post-emergence herbicidal test; type: in vivo; details: post-emergence method, application rates of 0.5 or 0.25 kg/ha, Echinochloa crusgalli (barnyardgrass)
From the text: as §1

Setaria viridis = experiment: greenhouse post-emergence herbicidal test; type: in vivo; details: post-emergence method, application rates of 0.5 or 0.25 kg/ha, Setaria viridis (green foxtail)
From the text: as §1

Solanum nigrum = experiment: greenhouse post-emergence herbicidal test; type: in vivo; details: post-emergence method, application rates of 0.5 or 0.25 kg/ha, Solanum nigrum (black nightshade)
From the text: as §1

Veronica ssp. = experiment: greenhouse post-emergence herbicidal test; type: in vivo; details: post-emergence method, application rates of 0.5 or 0.25 kg/ha
From the text: as §1

Cn1ncc(C(=O)c2ccc(S(C)(=O)=O)c3c2CC2CON=C32)c1OC(=O)c1ccccc1 (stereo not drawn) [compound 2.2, (5-Phenylcarbonyloxy-1-methyl-1H-pyrazol-4-yl)-(8-methyl-sulfonyl-3a,4-dihydro-3H-indeno[1,2-c]isoxazol-5-yl)methanone]
herbicidal activity (Chenopodium album): very good activity
herbicidal activity (Echinochloa crusgalli): very good activity
herbicidal activity (Setaria viridis): very good activity
herbicidal activity (Solanum nigrum): very good activity
herbicidal activity (Veronica ssp.): very good activity
melting point: 86 to 93 °C
